Experimental data reported in PMC11820102, “Molecular Dynamics-Assisted Discovery of Novel Phosphodiesterase-5 Inhibitors Targeting a Unique Allosteric Pocket” (Molecules, 2025).

What was measured:
[1] = molecular target: T1, PDE5A1 (Homo sapiens, UniProt O76074); experiment: radiometric 3H-cGMP hydrolysis assay, inhibition ratio at […]; format: biochemical; design: gene PDE5A; catalytic domain, amino acids 535–860
[2] = molecular target: PDE11A (Homo sapiens, UniProt Q9HCR9); experiment: radiometric 3H-cAMP/3H-cGMP hydrolysis assay, single concentration; format: biochemical
Sequence of PDE11A (Q9HCR9 whole entry): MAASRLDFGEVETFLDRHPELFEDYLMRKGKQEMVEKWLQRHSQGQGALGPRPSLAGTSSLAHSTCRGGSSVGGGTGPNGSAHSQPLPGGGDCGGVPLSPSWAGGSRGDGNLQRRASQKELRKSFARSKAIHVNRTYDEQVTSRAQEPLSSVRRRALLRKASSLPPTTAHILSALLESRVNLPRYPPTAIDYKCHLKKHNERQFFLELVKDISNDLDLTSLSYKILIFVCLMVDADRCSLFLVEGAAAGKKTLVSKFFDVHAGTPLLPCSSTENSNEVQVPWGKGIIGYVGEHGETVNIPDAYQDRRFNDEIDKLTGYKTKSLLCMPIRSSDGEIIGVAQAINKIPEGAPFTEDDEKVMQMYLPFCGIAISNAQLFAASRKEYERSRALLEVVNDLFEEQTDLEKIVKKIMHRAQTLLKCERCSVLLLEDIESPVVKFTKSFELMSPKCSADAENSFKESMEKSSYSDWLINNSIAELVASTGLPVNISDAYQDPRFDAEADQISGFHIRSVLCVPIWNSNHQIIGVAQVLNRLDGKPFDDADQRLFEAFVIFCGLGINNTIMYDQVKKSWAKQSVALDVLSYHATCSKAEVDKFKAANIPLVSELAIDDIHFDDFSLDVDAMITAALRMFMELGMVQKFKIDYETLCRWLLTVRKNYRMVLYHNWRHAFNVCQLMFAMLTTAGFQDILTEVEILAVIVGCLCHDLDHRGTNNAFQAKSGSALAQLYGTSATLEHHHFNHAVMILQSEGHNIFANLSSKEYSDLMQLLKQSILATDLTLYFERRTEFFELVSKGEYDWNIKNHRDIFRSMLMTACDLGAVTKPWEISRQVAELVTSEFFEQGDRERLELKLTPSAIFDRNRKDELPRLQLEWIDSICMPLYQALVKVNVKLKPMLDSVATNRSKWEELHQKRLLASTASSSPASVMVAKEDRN

[3] = molecular target: PDE10A (Homo sapiens, UniProt Q9Y233); experiment: as above; format: biochemical
Sequence of PDE10A (Q9Y233 whole entry, the tested form may be a part): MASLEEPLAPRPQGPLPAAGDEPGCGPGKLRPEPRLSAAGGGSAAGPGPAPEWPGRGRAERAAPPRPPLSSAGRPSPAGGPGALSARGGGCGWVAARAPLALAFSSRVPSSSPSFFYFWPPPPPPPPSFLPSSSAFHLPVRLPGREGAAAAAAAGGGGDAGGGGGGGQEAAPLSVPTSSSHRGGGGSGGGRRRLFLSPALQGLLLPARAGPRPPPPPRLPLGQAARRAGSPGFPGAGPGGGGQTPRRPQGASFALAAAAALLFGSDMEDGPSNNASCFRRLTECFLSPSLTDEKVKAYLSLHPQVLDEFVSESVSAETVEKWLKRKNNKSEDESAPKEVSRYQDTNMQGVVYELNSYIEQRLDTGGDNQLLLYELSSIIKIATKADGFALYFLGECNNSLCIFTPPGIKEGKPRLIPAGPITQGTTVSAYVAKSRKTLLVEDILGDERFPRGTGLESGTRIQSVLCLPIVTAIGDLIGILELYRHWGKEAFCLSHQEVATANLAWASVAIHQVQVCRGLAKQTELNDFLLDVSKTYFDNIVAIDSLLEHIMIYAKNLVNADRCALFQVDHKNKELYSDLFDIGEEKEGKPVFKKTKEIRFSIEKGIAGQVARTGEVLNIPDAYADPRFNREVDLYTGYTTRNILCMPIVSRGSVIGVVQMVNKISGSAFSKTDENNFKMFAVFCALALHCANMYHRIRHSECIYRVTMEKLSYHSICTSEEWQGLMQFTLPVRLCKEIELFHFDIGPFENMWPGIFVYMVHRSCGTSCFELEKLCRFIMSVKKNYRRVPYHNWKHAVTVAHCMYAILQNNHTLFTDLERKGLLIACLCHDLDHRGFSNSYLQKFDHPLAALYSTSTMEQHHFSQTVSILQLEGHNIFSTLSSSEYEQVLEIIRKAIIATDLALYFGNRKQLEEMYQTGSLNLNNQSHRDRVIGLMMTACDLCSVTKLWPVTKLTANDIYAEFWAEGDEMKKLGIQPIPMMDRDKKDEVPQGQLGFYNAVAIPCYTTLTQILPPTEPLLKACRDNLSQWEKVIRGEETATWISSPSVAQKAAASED

[4] = molecular target: T1, PDE5A1; experiment: radiometric 3H-cGMP hydrolysis assay, dose-response; format: biochemical; design: gene PDE5A; catalytic domain, amino acids 535–860
[5] = molecular target: T1, PDE5A1; design: gene PDE5A

inhibition at 10 µM [1] | Structure (SMILES) | further results
> 50% | COc1ccc(-c2cc3[nH]nc(N)c3c(=O)[nH]2)cc1 [AR-270/43409613] | –
> 50% | COc1cccc2c1C(=O)/C(=C/c1ccc(N(C)C)cc1)C2 [AT-051/43410123] | –

The remaining lines, values behind:

Structure (SMILES) | inhibition at 10 µM [1] | further results
CC1(C2CCc3c(O)c4c(c(O)c3C2)C(=O)c2ccccc2C4=O)OCCO1 (stereo not drawn) [AE-508/36401018] | > 50% | –
COc1cc([N+](=O)[O-])cc2c1C(=O)Nc1ccccc1O2 [AG-205/40649212] | > 50% | –
COc1cccc2c1C(=O)c1c(O)ccc(O)c1C2=O [AG-650/41069360] | > 50% | –
Cc1sc(N)c2c(=O)oc3c4ccccc4ccc3c12 [AI-898/12177002] | – | % inhibition at 10 μM [2]: 63; % inhibition at 10 μM [3]: 79; IC50 [4]: 1600 nM
CCCc1nn(C)c2c(=O)[nH]c(-c3cc(S(=O)(=O)N4CCN(C)CC4)ccc3OCC)nc12 [Sildenafil] | – | % inhibition at 10 nM [5]: > 50
